This note sets out measurements from publication PMC4747952, “Development of TASP0410457 (TASP457), a novel dihydroquinolinone derivative as a PET radioligand for central histamine H3 receptors” (EJNMMI Research, 2016).

One data set deals with T1, H3R (Rattus norvegicus, UniProt Q9QYN8).
T1 construct: from tissue; host or cells: brain of living Sprague-Dawley rats
Description: PET imaging of rat brains. In kind it is in vivo. Particulars: for cerebellar SUV at 15 min after radioligand injection: mean ± S.D. The procedure:
Six-week-old male Sprague-Dawley rats were purchased from Japan SLC (Shizuoka, Japan). PET scans were performed using a microPET Focus 220 small-animal scanner (Siemens Medical Solutions USA, Knoxville, TN). The rats were anesthetized with 1.5–2 % isoflurane during the imaging session, while their heart rate and blood oxygen saturation were monitored by pulse oximeter (CANL-425SVA; Med Associates, St. Albans, VT). Body temperature was kept at 37 °C with a heating pad (BWT-100; Bio Research Center, Aichi, Japan). Following the transmission scans for attenuation correction using a ^68Ge-^68Ga point source, emission scans were performed for 90 min in 3D list-mode with an energy window of 350–750 keV, immediately after the intravenous injection of each radioligand. Mean ± S.D. of the injected radioactivity of [^11C]TASP0410457, [^11C]TASP0434988, and [^11C]TASP0390136 was 119 ± 26 MBq, 132 ± 34 MBq, and 124 ± 17 MBq, respectively (n = 3–5). Mean ± S.D. of the mass doses of [^11C]TASP0410457, [^11C]TASP0434988, and [^11C]TASP0390136 was 2.4 ± 1.2 μg/kg, 1.9 ± 0.4 μg/kg, and 4.2 ± 1.6 μg/kg, respectively (n = 3–5).
To assess the specificity of radioligand binding, thioperamide was injected intravenously at a dose of 10 mg/kg at 30 s before the injection of each radioligand.
All list-mode data were sorted into 3D sinograms, which were then Fourier rebinned into 2D sinograms (frames: 1 min × 4, 2 min × 8 and 5 min × 14). Images were reconstructed using 2D-filtered back-projection with a 0.5-mm Hanning filter.
PET image and magnetic resonance imaging (MRI) template were co-registered using PMOD software (PMOD version 3.206; Zurich, Switzerland) according to the following procedure as in our previous works: Outline of the whole brain and positions of eyes in PET images at an early phase of the scan were initially matched to those in MRI images, and then further translations and rotations of PET images were manually performed for fine alignments. Finally, parameters for the co-registration were applied to the entire dynamic PET data. Regions of interest (ROIs) were placed on the striatum, hippocampus, and cerebellum using PMOD software with reference to the MRI template as described elsewhere. The tissue time-activity curves (TACs) for these ROIs were generated by calculating the SUV for each time frame as follows: SUV=radioactivityBq/g×bodyweightg/injectedradiotracerdoseBq
The binding potentials relative to the non-displaceable uptake (BPND) in the striatum and hippocampus were estimated using the simplified reference tissue model (SRTM) with PMOD software using the cerebellum as a reference region, as the rat cerebellum is devoid of H3R [26].

Data set [1] has as its target T2, H3Rs (Macaca mulatta, UniProt Q865E1).
T2 construct: from tissue; host or cells: brain of living rhesus monkeys
Description: PET in conscious rhesus monkey. In kind it is in vivo, rhesus monkey (Macaca mulatta). The procedure:
A male rhesus monkey (Macaca mulatta, weighing 6–7 kg) was used for a comparative PET analysis of [^11C]TASP0410457 and [^11C]TASP0434988. PET scans were performed using a high-resolution SHR-7700 animal PET camera (Hamamatsu Photonics, Hamamatsu, Japan). Following transmission scans for attenuation correction using a ^68Ge-^68Ga point source, emission scans were performed on a conscious monkey as described previously, in 3D acquisition mode (frames: 10 s × 12, 30 s × 6, 1 min × 5, 2 min × 5 and 5 min × 14) for 90 min after the intravenous injection of [^11C]TASP0410457 (169–176 MBq) or [^11C]TASP0434988 (173–188 MBq). Briefly, the monkey was immobilized by joining the acrylic cap on the monkey head with the fixation device during PET scans. To assess a homologous competition for the target binding sites, unlabeled TASP0410457 or TASP0434988 was injected intravenously at a dose of 1 mg/kg at 30 s before injection of the corresponding radioligand.
Emission scan images were reconstructed using a 4.0-mm Colsher filter. ROIs were placed on the anterior cingulate cortex, striatum, thalamus, hippocampus, cerebellum, frontal cortex, temporal cortex, occipital cortex, and pons-medulla using PMOD software, with reference to an MRI template as described previously. Tissue TACs were generated as in the rat PET image analysis.

For the next data set, the system named is central H3Rs. The experiment in a line: Receptor occupancy assay, [^11C]TASP0410457-PET, Lassen's plot. In kind it is in vivo, monkey. Particulars: monkey. The procedure: Occupancy of central H3Rs by ciproxifan, a selective antagonist/inverse agonist, was quantified by [^11C]TASP0410457-PET scans of an anesthetized monkey with arterial blood sampling. […] Receptor occupancy of ciproxifan was determined using Lassen’s plot without any reference regions using the following equation: VT^Baseline−VT^Ciproxifan=OccVT^Baseline−VND where VT^Baseline and VT^Ciproxifan are the regional VT values at baseline and in the ciproxifan challenge, respectively, VND is the non-displaceable distribution volume, and Occ is the occupancy.

For data set [2], the target named is T3, H3Rs (Rattus norvegicus, UniProt Q9QYN8).
T3 construct: from tissue; host or cells: sagittal rat brain sections
T3 sequence (Q9QYN8 whole entry): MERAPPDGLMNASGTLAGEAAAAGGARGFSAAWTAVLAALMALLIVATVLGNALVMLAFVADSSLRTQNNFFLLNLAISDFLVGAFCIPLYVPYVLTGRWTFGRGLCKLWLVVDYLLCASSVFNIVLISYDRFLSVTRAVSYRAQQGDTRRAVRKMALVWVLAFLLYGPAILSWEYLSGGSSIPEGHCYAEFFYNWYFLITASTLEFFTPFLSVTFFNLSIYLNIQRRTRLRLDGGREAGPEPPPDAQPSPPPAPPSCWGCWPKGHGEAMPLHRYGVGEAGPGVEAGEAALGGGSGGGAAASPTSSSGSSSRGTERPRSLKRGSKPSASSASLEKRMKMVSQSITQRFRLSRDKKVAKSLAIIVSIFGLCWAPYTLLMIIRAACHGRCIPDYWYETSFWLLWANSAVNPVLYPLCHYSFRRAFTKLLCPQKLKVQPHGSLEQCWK
Description: In vitro autoradiography, rat brain sections. In kind it is binding. Conditions: 5 nM radioligand. The procedure:
Twenty-micrometer-thick sagittal rat and monkey brain sections were incubated in an autoradiography buffer containing 5 nM [^11C]TASP0410457 as described in Additional file 1: Supplemental methods. The binding was also performed in the presence of 10 μM of unlabeled TASP0410457, thioperamide, or ciproxifan for the rat sections and 10 μM of TASP0410457 or ciproxifan for the monkey sections to assess the specific radioligand binding.
(25:75) at a flow rate of 1 mL/min. A representative chromatogram of [11C]TASP0390136 is shown in […]
Twenty-micrometer-thick sagittal rat brain sections were pre-incubated with autoradiography buffer (50 mM Tris containing 120 mM NaCl, 2 mM KCl, 1 mM MgCl2, and 1 mM CaCl2, pH7.4) for 30 min, then incubated in the autoradiography buffer containing 5 nM [11C]TASP0410457 at 25°C for 1 h. The sections were washed two times with ice-cold autoradiography buffer for 5 min, rinsed with ice-cold water for 10 s, and then quickly dried. The radioactivity retained on the sections was determined using a BAS imaging plate and the BAS5000 system (GE Healthcare, Piscataway, NJ). For a blocking study, brain slices were reacted with [11C]TASP0410457 in the presence of […] of TASP0410457, thioperamide, or ciproxifan.
Similarly, autoradiography using […] sagittal rhesus monkey brain sections was conducted. […]

[3] abbreviates: SRTM, cerebellum as reference region.

T2 sequence (Q865E1 1-445): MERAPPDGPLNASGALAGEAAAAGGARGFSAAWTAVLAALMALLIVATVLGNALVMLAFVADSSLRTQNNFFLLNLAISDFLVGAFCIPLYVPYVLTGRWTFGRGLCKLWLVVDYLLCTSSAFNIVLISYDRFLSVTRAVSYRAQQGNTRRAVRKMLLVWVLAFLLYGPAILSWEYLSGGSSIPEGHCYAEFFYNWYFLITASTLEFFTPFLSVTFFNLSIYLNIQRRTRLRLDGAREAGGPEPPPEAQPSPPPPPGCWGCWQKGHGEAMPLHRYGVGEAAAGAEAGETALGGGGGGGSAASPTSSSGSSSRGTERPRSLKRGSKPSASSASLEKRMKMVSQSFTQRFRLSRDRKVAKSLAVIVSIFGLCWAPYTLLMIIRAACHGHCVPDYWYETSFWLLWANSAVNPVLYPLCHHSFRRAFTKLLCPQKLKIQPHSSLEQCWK
T1 sequence (Q9QYN8 whole entry): as the sequence (Q9QYN8 whole entry) above

Consider `[11CH3]Oc1ccc(N2C(=O)CCc3cc(OC4CCN(C5CCC5)CC4)ccc32)cn1` [[^11C]TASP0410457], for which, on H3R (setting [3]), the “BPND, Hippocampus” value was 0.53 ± 0.06 and the “BPND, Striatum” value is reported as 1.26 ± 0.12. Also, at H3R (baseline), the “cerebellar SUV at 15 min after radioligand injection” value came out at 0.64 ± 0.13. For the same compound, at H3R (bolus intravenous, baseline), the “peak SUV, cerebellum” value is listed as roughly 1.2; the “peak SUV, hippocampus” value is listed as “around 1.5”; the “peak SUV, striatum” value is roughly 2.0. On H3R (target-to-reference ratios, after intravenous injection), the “time for specific binding to reach a pseudo-equilibrium state” value is no more than 15 min. The “cerebellar SUV at 15 min after radioligand injection” value on H3R (thioperamide predosing 10 mg/kg) stood at 0.47 ± 0.09. At H3Rs [1] (another monkey in a conscious condition (additional PET study)), the “peak SUV in the striatum” value came to 3.0. Besides, the “time of peak brain uptake after the injection” value on H3Rs [1] (conscious monkey PET) is recorded as no more than 30 min. Besides, the “peak SUV in the striatum” value on H3Rs [1] (first conscious monkey) came out at 3.4. The “specific radioligand binding as share of the radioactivity in the striatum” value in the data set with central H3Rs is listed as “more than 80%”. In the data set on central H3Rs (Lassen's plot), the Non-displaceable distribution volume worked out at 4.0 mL/cm^3. For the same compound, the “autoradiographic binding in rat brain sections” value at H3Rs [2] is “abundant specific binding in the striatum and neocortex”.
